This passage reports EC50 and IC50 results from US20250320213A1, “Nitrogen-Containing Heterocyclic Compounds” (Pfizer Inc., priority 2024, published 2025).

Read-outs that look alike come from different tables or passages of the source.

One experiment concerns the target T1, STAT6 (Homo sapiens, UniProt P42226).
T1 construct: stably transfected HaCaT keratinocyte cell line, which expresses NanoLuc luciferase reporter gene under the transcriptional control of the STAT6 responsive promoter; endogenous in cells; host or cells: HaCaT keratinocyte reporter cell line (stably transfected with a NanoLuc reporter)
T1 sequence (P42226 1-847): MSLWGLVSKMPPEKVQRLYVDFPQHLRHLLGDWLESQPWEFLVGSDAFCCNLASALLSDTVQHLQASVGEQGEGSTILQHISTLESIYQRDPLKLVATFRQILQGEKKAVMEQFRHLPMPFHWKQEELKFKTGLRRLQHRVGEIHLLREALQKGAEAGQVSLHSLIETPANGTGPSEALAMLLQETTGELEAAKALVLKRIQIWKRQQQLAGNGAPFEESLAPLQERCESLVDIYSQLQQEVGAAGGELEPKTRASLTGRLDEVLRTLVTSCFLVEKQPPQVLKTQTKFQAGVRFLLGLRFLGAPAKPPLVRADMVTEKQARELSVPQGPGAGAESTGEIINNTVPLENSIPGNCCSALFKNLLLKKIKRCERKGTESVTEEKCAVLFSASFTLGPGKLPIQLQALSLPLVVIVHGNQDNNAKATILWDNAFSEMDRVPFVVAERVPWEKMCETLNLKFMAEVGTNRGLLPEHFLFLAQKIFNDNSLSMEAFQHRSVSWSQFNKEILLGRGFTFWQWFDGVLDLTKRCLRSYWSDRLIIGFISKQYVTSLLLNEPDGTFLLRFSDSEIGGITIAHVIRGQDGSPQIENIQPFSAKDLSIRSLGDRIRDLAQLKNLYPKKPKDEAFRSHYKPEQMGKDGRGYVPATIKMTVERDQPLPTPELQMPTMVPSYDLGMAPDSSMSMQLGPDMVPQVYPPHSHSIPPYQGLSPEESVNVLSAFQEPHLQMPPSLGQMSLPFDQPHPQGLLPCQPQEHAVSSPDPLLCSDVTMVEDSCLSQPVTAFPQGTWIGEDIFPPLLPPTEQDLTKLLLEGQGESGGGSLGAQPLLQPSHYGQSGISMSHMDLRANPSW
Description: STAT6 Reporter Luciferase Assay (IL-13 stimulated HaCaT keratinocyte NanoLuc reporter cells). The following applies: read-out: Reporter EC50. In kind it is cell-based. Put shortly:
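HaCaT cells stably carrying a NanoLuc reporter driven by the STAT6-responsive IL-13Ra2 promoter were preincubated with compounds for 2 h at 37 °C in 2% FBS medium. Cells were then stimulated with 0.12 nM IL-13 for 4 h, and luminescence was read after Nano-Glo substrate. Compounds ran as 11-point 4-fold dilutions in duplicate.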

In experiment [1] the test system is CCL17 secretion in peripheral human whole blood. Description: Human Whole Blood (HWB) CCL17 TR-FRET Assay (IL-13 stimulated CCL17 secretion). In kind it is cell-based. The following applies: 10 ng/mL IL13, 48 hours. The procedure, abridged:
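IC50 values reflect inhibition of IL-13-driven CCL17 release in human whole blood. Blood was preincubated with compound 2 h, stimulated 48 h at 37 °C with IL-13 (10 ng/mL final), and serum CCL17 was measured by TR-FRET.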
For orientation: TR-FRET usually uses a lanthanide donor and a delayed reading to cut background.

Where [2] appears, read: STAT6 NanoLuc luciferase reporter, IL-13 stimulated HaCaT keratinocyte cells.
Where [3] appears, read: inhibition of CCL17 secretion in human whole blood.
[4] abbreviates: Homo sapiens, 48 h, inhibition of CCL17 secretion in human whole blood.

On to `CC(C)n1nc(C(=O)NCc2ccc(NC(=O)N(C)C)cc2)c2c1C(C(F)(F)F)CN(c1ccc(C(=O)N(C)C)cn1)C2` (racemic) [Example 546, rac-(R)-5-(5-(Dimethylcarbamoyl)pyridin-2-yl)-N-(4-(3,3-dimethylureido)benzyl)-1-isopropyl-7-(trifluoromethyl)-4,5,6,7-tetrahydro-1H-pyrazolo[4,3-c]pyridine-3-carboxamide], for which the EC50 on STAT6 (IL-13 stimulated HaCaT STAT6 NanoLuc reporter cells) amounted to 0.3 nM. In experiment [1] (Homo sapiens, 48 h, human whole blood), this compound had an IC50 of 5 nM.
Regarding `CC1CN(c2ccc(C(=O)N(C)C)cn2)Cc2c(C(=O)NCc3ccc(NC(=O)N(C)C)cc3)nn(C)c21` (single isomer, unassigned) [Example 7, rel-(R or S)-5-(5-(Dimethylcarbamoyl)pyridin-2-yl)-N-(4-(3,3-dimethylureido)benzyl)-1,7-dimethyl-4,5,6,7-tetrahydro-1H-pyrazolo[4,3-c]pyridine-3-carboxamide], the EC50 on STAT6 (setting [2]) came to 33 nM. Also, in experiment [1] (setting [3]), the IC50 is 196 nM.
`CC1CN(c2ccc(C(=O)N(C)C)cn2)Cc2c(C(=O)NCc3ccc(NC(=O)N(C)C)cc3)nn(C)c21` (single isomer, unassigned) [Example 8, rel-(R or S)-5-(5-(Dimethylcarbamoyl)pyridin-2-yl)-N-(4-(3,3-dimethylureido)benzyl)-1,7-dimethyl-4,5,6,7-tetrahydro-1H-pyrazolo[4,3-c]pyridine-3-carboxamide]: the EC50 on STAT6 (setting [2]) was determined as 3 nM. The compound further came in with an IC50 in experiment [1] (setting [3]) of 14 nM.
The matching figures for `Cc1nc(C(=O)NCc2ccc(NC(=O)N(C)C)cc2)c2n1C(C)CN(c1ccc(C(=O)N(C)C)cn1)C2` (single isomer, unassigned) [Example 53, rel-(R or S)-7-(5-(dimethylcarbamoyl)pyridin-2-yl)-N-(4-(3,3-dimethylureido)benzyl)-3,5-dimethyl-5,6,7,8-tetrahydroimidazo[1,5-a]pyrazine-1-carboxamide]: 8 nM and 19 nM.
Regarding `Cc1nc(C(=O)NCc2ccc(NC(=O)N(C)C)cc2)c2n1C(C)CN(c1ccc(C(=O)N(C)C)cn1)C2` (single isomer, unassigned) [Example 54, rel-(R or S)-7-(5-(dimethylcarbamoyl)pyridin-2-yl)-N-(4-(3,3-dimethylureido)benzyl)-3,5-dimethyl-5,6,7,8-tetrahydroimidazo[1,5-a]pyrazine-1-carboxamide], on STAT6 (setting [2]), the EC50 is 120 nM. For the same compound, 332 nM corresponded to half-maximal inhibition in experiment [1] (setting [3]) (IC50).
The matching figures for `CCC1CN(c2ccc(C(=O)N(C)C)cn2)Cc2c(C(=O)NCc3ccc(NC(=O)N(C)C)cc3)nn(C)c21` (single isomer, unassigned) [Example 58, rel-(R or S)-5-(5-(Dimethylcarbamoyl)pyridin-2-yl)-N-(4-(3,3-dimethylureido)benzyl)-7-ethyl-1-methyl-4,5,6,7-tetrahydro-1H-pyrazolo[4,3-c]pyridine-3-carboxamide]: 24 nM and 170 nM.
Regarding `CCn1nc(C(=O)NCc2ccc(NC(=O)N(C)C)cc2)c2c1[C@H](C)CN(c1ccc(C(=O)N(C)C)cn1)C2` (single isomer, unassigned) [Example 63], the EC50 at STAT6 (setting [2]) was 14 nM. This compound also yielded an IC50 in experiment [1] (setting [4]) of 105 nM.
`CCC1CN(c2ccc(C(=O)N(C)C)cn2)Cc2c(C(=O)NCc3ccc(NC(=O)N(C)C)cc3)nn(C)c21` (single isomer, unassigned) [Example 78, rel-(R or S)-5-(5-(Dimethylcarbamoyl)pyridin-2-yl)-N-(4-(3,3-dimethylureido)benzyl)-7-ethyl-1-methyl-4,5,6,7-tetrahydro-1H-pyrazolo[4,3-c]pyridine-3-carboxamide]: the EC50 at STAT6 (setting [2]) was found to be 3 nM. Half-maximal inhibition in experiment [1] (setting [3]) (IC50) required 14 nM.
As for `CCC1CN(c2ccc(C(=O)N(C)C)cn2)Cc2c(C(=O)NCc3ccc(NC(=O)N(C)C)cc3)n[nH]c21` (single isomer, unassigned) [Example 82, rel-(R or S)-5-(5-(dimethylcarbamoyl)pyridin-2-yl)-N-(4-(3,3-dimethylureido)benzyl)-7-ethyl-4,5,6,7-tetrahydro-1H-pyrazolo[4,3-c]pyridine-3-carboxamide], at STAT6 (setting [2]), the concentration giving a half-maximal response (EC50) amounted to 101 nM. Also, in experiment [1] (setting [3]), the IC50 came to 112 nM.
The like results for `CCC1CN(c2ccc(C(=O)N(C)C)cn2)Cc2c(C(=O)NCc3ccc(NC(=O)N(C)C)cc3)n[nH]c21` (single isomer, unassigned) [Example 83, rel-(R or S)-5-(5-(dimethylcarbamoyl)pyridin-2-yl)-N-(4-(3,3-dimethylureido)benzyl)-7-ethyl-4,5,6,7-tetrahydro-1H-pyrazolo[4,3-c]pyridine-3-carboxamide] were, in that order, 86 nM and 278 nM.
As for `CC(C1CC1)n1nc(C(=O)NCc2ccc(NC(=O)N(C)C)cc2)c2c1CCN(c1ccc(C(=O)N(C)C)cn1)C2` (single isomer, unassigned) [Example 87, rel-(R or S)-1-(1-cyclopropylethyl)-5-(5-(dimethylcarbamoyl)pyridin-2-yl)-N-(4-(3,3-dimethylureido)benzyl)-4,5,6,7-tetrahydro-1H-pyrazolo[4,3-c]pyridine-3-carboxamide], on STAT6 (setting [2]), the EC50 is 15 nM. The compound also displayed a 50% inhibitory concentration (IC50) in experiment [1] (setting [4]) of 118 nM.
As to `CCn1nc(C(=O)NCc2ccc(NC(=O)N(C)C)cc2)c2c1C[C@H](C)N(c1ccc(C(=O)N(C)C)cn1)C2` (single isomer, unassigned) [Example 111], on STAT6 (setting [2]), the EC50 came out at 3 nM. Also, in experiment [1] (setting [4]), half-maximal inhibition (IC50) was put at 13 nM.
Regarding `CC(C)n1nc(C(=O)NCc2ccc(NC(=O)N(C)C)cc2)c2c1[C@H](C)CN(c1ccc(C(=O)N(C)C)cn1)C2` (single isomer, unassigned) [Example 112], on STAT6 (setting [2]), the EC50 came to 15 nM. Moreover, it took 78 nM to reach half-maximal inhibition in experiment [1] (setting [4]) (IC50).
Regarding `CCn1nc(C(=O)NCc2ccc(NC(=O)N(C)C)cc2)c2c1C[C@@H](C)N(c1ccc(C(=O)N(C)C)cn1)C2` (single isomer, unassigned) [Example 113], the EC50 on STAT6 (setting [2]) was found to be 17 nM. In experiment [1] (setting [4]), half-maximal inhibition (IC50) required 161 nM.
Consider `CCC1Cc2c(c(C(=O)NCc3ccc(NC(=O)N(C)C)cc3)nn2CC)CN1c1ccc(C(=O)N(C)C)cn1` (single isomer, unassigned) [Example 117, rel-(R or S)-5-(5-(dimethylcarbamoyl)pyridin-2-yl)-N-(4-(3,3-dimethylureido)benzyl)-1,6-diethyl-4,5,6,7-tetrahydro-1H-pyrazolo[4,3-c]pyridine-3-carboxamide], for which the EC50 at STAT6 (setting [2]) is 3 nM. This compound displayed an IC50 in experiment [1] (setting [3]) of 13 nM.
Consider `CCC1Cc2c(c(C(=O)NCc3ccc(NC(=O)N(C)C)cc3)nn2CC)CN1c1ccc(C(=O)N(C)C)cn1` (single isomer, unassigned) [Example 118, rel-(R or S)-5-(5-(dimethylcarbamoyl)pyridin-2-yl)-N-(4-(3,3-dimethylureido)benzyl)-1,6-diethyl-4,5,6,7-tetrahydro-1H-pyrazolo[4,3-c]pyridine-3-carboxamide], for which the half-maximal effective concentration (EC50) on STAT6 (setting [2]) came out at 25 nM. Moreover, the IC50 in experiment [1] (setting [3]) came out at 116 nM.
Turning to `C[C@H]1CN(c2ccc(C(=O)N(C)C)cn2)Cc2c(C(=O)NCc3ccc(NC(=O)N(C)C)cc3)nn(C3CCC3)c21` (single isomer, unassigned) [Example 119], the EC50 on STAT6 (setting [2]) turned out to be 0.3 nM. Also, in experiment [1] (setting [4]), the IC50 was determined as 4 nM.
`C[C@@H]1Cc2c(c(C(=O)NCc3ccc(NC(=O)N(C)C)cc3)nn2C)CN1c1ccc(-c2nccn2C)cn1` (single isomer, unassigned) [Example 122]: the concentration giving a half-maximal response (EC50) at STAT6 (setting [2]) was 24 nM. Also, inhibition in experiment [1] (setting [4]) was half-maximal at 900 nM (IC50).
For `CC(C)n1nc(C(=O)NCc2ccc(-c3ncc[nH]3)cc2)c2c1C(C(F)(F)F)CN(c1ccc(C(=O)N(C)C)cn1)C2` (single isomer, unassigned) [Example 123, rel-(R or S)-N-(4-(1H-imidazol-2-yl)benzyl)-5-(5-(dimethylcarbamoyl)pyridin-2-yl)-1-isopropyl-7-(trifluoromethyl)-4,5,6,7-tetrahydro-1H-pyrazolo[4,3-c]pyridine-3-carboxamide], on STAT6 (setting [2]), the EC50 stood at 41 nM. In experiment [1] (setting [3]), this compound came in with an IC50 of 1010 nM.

Broadly, the EC50 is the concentration giving half of the maximal effect. As usually defined, the IC50 is the point on the concentration scale where inhibition reaches its midpoint. Lower therefore signals greater potency.
